The structures appear in SMILES notation. Like-named read-outs stand apart in the source and are kept apart here. Some results are limits rather than exact numbers.

The values that follow come from US8497240B2 (priority 2006, dated 2013).

The nature of assay [1]: IVGTT duration of action assay (single SC injection before glucose). The class given is in vivo, rat. The following applies: compared with 0601GIP3794 (794), dosed at −120 min.
Protocol: To determine a duration of action using the IVGTT assay, the sample was injected SC as a single injection at one time point indicated (e.g., t=−240, −120, −60 or −30) prior to administration of glucose. IV glucose was given at t=0.
Assay [2] is classed as in vivo, NIH/Swiss mice. Particulars: 30 nmol/kg.
Protocol: (§1) In FIG. 3A, bars represent mean±sd, n=6-10. […] Gavage (1.5 g/kg) was given at t=0, Sample was taken at t=30 min. […] In FIG. 3B, points represent mean±sem, n=8-15.
Peptide was injected IP at t=−5 minutes into 4-hour fasted NIH/Swiss female mice. […] In FIG. 17 points represent mean+/−sem. […] Samples were taken at t=60, t=120 and t=180.
In assay [3] the target is T1, human GIP receptor (Homo sapiens, UniProt P48546).
T1 construct: expressed in transfected cells; host or cells: HEK293 (HEK-GIPR), membranes
T1 sequence (P48546 22-466): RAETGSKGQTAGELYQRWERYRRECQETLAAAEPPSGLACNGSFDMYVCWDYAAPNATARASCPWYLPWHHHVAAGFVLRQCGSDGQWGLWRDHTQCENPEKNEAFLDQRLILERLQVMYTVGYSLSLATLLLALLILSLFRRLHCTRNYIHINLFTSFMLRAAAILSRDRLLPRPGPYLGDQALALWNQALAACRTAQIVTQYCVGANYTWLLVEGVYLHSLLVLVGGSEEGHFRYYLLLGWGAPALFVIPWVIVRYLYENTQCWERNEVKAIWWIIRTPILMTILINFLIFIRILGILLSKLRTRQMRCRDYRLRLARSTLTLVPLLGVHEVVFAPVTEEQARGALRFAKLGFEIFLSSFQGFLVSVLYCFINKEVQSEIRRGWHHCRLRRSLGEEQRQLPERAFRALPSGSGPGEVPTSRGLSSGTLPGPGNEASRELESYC
As to the kind of experiment: biochemical. The assay is classed as binding.

Assay [4] is classed as in vivo, NIH/Swiss mice. The following applies: 80 nmol/kg, AUC240.
Protocol: as §1
Points represent mean±sem.
Where [5] appears, read: read-out: (% Inh 10 nm, GIP-LF Assay).
Setting [6] is: read-out: GIP RBA (% Inh 10 nM).

Turning to `CC[C@H](C)[C@H](NC(=O)[C@H](CO)NC(=O)[C@H](Cc1ccc(O)cc1)NC(=O)[C@H](CC(=O)O)NC(=O)[C@H](CO)NC(=O)[C@@H](NC(=O)[C@H](Cc1ccccc1)NC(=O)[C@@H](NC(=O)CNC(=O)[C@H](CCC(=O)O)NC(=O)[C@@H](C)NC(=O)[C@@H](N)Cc1ccc(O)cc1)[C@@H](C)O)[C@@H](C)CC)C(=O)N[C@@H](C)C(=O)N[C@@H](CCSC)C(=O)N[C@@H](CC(=O)O)C(=O)N[C@@H](CCCCN)C(=O)N[C@H](C(=O)N[C@@H](Cc1c[nH]cn1)C(=O)N[C@@H](CCC(N)=O)C(=O)N[C@@H](CCC(N)=O)C(=O)N[C@@H](CC(=O)O)C(=O)N[C@@H](Cc1ccccc1)C(=O)N[C@H](C(=O)N[C@@H](CC(N)=O)C(=O)N[C@@H](Cc1c[nH]c2ccccc12)C(=O)N[C@@H](CC(C)C)C(=O)N[C@@H](CC(C)C)C(=O)N[C@@H](C)C(=O)N[C@@H](CCC(N)=O)C(=O)N[C@@H](CCCCN)C(=O)N1CCC[C@H]1C(=O)N[C@@H](C)C(=O)N[C@@H](CCCCN)C(=O)N[C@H](C(=O)N[C@@H](CCCNC(=N)N)C(=O)N[C@@H](Cc1ccc(O)cc1)C(=O)N[C@@H](CO)C(N)=O)[C@@H](C)CC)C(C)C)[C@@H](C)CC` [Compound 0601GIP4815], the “Duration In The Rat IVGTT Assay” value in assay [1] is <794@ −120 min. Moreover, the “OGTT/GL (%)” value in assay [2] was −23, %. Also, the inhibition at 0.01 µM in assay [3] (setting [5]) and in assay [3] (setting [6]) was 89% each time.
With `CC[C@H](C)[C@H](NC(=O)[C@H](CO)NC(=O)[C@H](Cc1ccc(O)cc1)NC(=O)[C@H](CC(=O)O)NC(=O)[C@H](CO)NC(=O)[C@@H](NC(=O)[C@H](Cc1ccccc1)NC(=O)[C@@H](NC(=O)CNC(=O)[C@H](CCC(=O)O)NC(=O)[C@@H](C)NC(=O)[C@@H](N)Cc1ccc(O)cc1)[C@@H](C)O)[C@@H](C)CC)C(=O)N[C@@H](C)C(=O)N[C@@H](CCSC)C(=O)N[C@@H](CC(=O)O)C(=O)N[C@@H](CCCCN)C(=O)N[C@H](C(=O)N[C@@H](Cc1c[nH]cn1)C(=O)N[C@@H](CCC(N)=O)C(=O)N[C@@H](CCC(N)=O)C(=O)N[C@@H](CC(=O)O)C(=O)N[C@@H](Cc1ccccc1)C(=O)N[C@H](C(=O)N[C@@H](CC(N)=O)C(=O)N[C@@H](Cc1c[nH]c2ccccc12)C(=O)N[C@@H](CC(C)C)C(=O)N[C@@H](CC(C)C)C(=O)N[C@@H](C)C(=O)N[C@@H](CCC(N)=O)C(=O)N[C@@H](CCCCN)C(=O)N1CCC[C@H]1C(=O)N[C@@H](CCCCN)C(=O)N[C@@H](CCC(N)=O)C(=O)N[C@H](C(=O)N[C@@H](CCCNC(=N)N)C(=O)N[C@@H](Cc1ccc(O)cc1)C(=O)N[C@@H](CO)C(N)=O)[C@@H](C)CC)C(C)C)[C@@H](C)CC` [Compound 0601GIP4854], in assay [1], the “Duration In The Rat IVGTT Assay” value was <794@ −120 min. In addition, the “OGTT/GL (%)” value in assay [2] is reported as −14, %. In addition, in assay [3] (setting [5]), the inhibition at 0.01 µM is 93.5%.
On to `CC[C@H](C)[C@H](NC(=O)[C@H](CCCCN)NC(=O)[C@H](CC(=O)O)NC(=O)[C@H](CC(C)C)NC(=O)[C@H](C)NC(=O)[C@@H](NC(=O)[C@H](CO)NC(=O)[C@H](Cc1ccc(O)cc1)NC(=O)[C@H](CC(=O)O)NC(=O)[C@H](CO)NC(=O)[C@@H](NC(=O)[C@H](Cc1ccccc1)NC(=O)[C@@H](NC(=O)CNC(=O)[C@H](CCC(=O)O)NC(=O)[C@@H](C)NC(=O)[C@H](Cc1ccc(O)cc1)NC(=O)[C@@H](N)CC(C)C)[C@@H](C)O)[C@@H](C)CC)[C@@H](C)CC)C(=O)N[C@@H](C)C(=O)N[C@@H](CCC(N)=O)C(=O)N[C@@H](CCC(N)=O)C(=O)N[C@@H](CCC(=O)O)C(=O)N[C@@H](Cc1ccccc1)C(=O)N[C@H](C(=O)N[C@@H](CC(N)=O)C(=O)N[C@@H](Cc1c[nH]c2ccccc12)C(=O)N[C@@H](CC(C)C)C(=O)N[C@@H](CC(C)C)C(=O)N[C@@H](C)C(=O)N[C@@H](CCC(N)=O)C(=O)N[C@@H](CCCCN)C(=O)N1CCC[C@H]1C(=O)N[C@@H](CCCCN)C(=O)N[C@@H](CCCCN)C(=O)N[C@H](C(=O)N[C@@H](CCCNC(=N)N)C(=O)N[C@@H](Cc1ccc(O)cc1)C(=O)N[C@@H](CO)C(N)=O)[C@@H](C)CC)C(C)C` [0601GIP4802], for which the “Duration In The Rat IVGTT Assay” value in assay [1] was <794 @ −120 min. Also, in assay [2], the “OGTT/GL (%)” value is on record as −28, %. For the same compound, the inhibition at 0.01 µM in assay [3] (setting [5]) and in assay [3] (setting [6]) was 87.3% throughout.
With `CC[C@H](C)[C@H](NC(=O)[C@H](CO)NC(=O)[C@H](Cc1ccc(O)cc1)NC(=O)[C@H](CC(=O)O)NC(=O)[C@H](CO)NC(=O)[C@@H](NC(=O)[C@H](Cc1ccccc1)NC(=O)[C@@H](NC(=O)CNC(=O)[C@H](CCC(=O)O)NC(=O)[C@@H](C)NC(=O)[C@@H](N)Cc1ccc(O)cc1)[C@@H](C)O)[C@@H](C)CC)C(=O)N[C@@H](C)C(=O)N[C@@H](CCSC)C(=O)N[C@@H](CC(=O)O)C(=O)N[C@@H](CCCCN)C(=O)N[C@H](C(=O)N[C@@H](Cc1c[nH]cn1)C(=O)N[C@@H](CCC(N)=O)C(=O)N[C@@H](CCC(N)=O)C(=O)N[C@@H](CC(=O)O)C(=O)N[C@@H](Cc1ccccc1)C(=O)N[C@H](C(=O)N[C@@H](CC(N)=O)C(=O)N[C@@H](Cc1c[nH]c2ccccc12)C(=O)N[C@@H](CC(C)C)C(=O)N[C@@H](CC(C)C)C(=O)N[C@@H](C)C(=O)N[C@@H](CCC(N)=O)C(=O)N[C@@H](CCCCN)C(=O)N1CCC[C@H]1C(=O)N[C@@H](CCCCN)C(=O)NCC(=O)N[C@@H](CCCCN)C(=O)NCC(=O)N[C@@H](CCCCN)C(=O)N[C@@H](CO)C(N)=O)C(C)C)[C@@H](C)CC` [0601GIP4700], the “OGTT/GL (%)” value in assay [2] was −21, 30%. In addition, in assay [4], the “Basal Glucose Lowering at Peptide Conc. of 80 nmol/kg” value (“Basal Glucose Lowering” for short) is on record as −6%, AUC240. Moreover, the inhibition at 0.01 µM in assay [3] (setting [6]) is 86.6%.
On to `CC[C@H](C)[C@H](NC(=O)[C@H](CO)NC(=O)[C@H](Cc1ccc(O)cc1)NC(=O)[C@H](CC(=O)O)NC(=O)[C@H](CO)NC(=O)[C@@H](NC(=O)[C@H](Cc1ccccc1)NC(=O)[C@@H](NC(=O)CNC(=O)[C@H](CCC(=O)O)NC(=O)[C@@H](C)NC(=O)[C@@H](N)Cc1ccc(O)cc1)[C@@H](C)O)[C@@H](C)CC)C(=O)N[C@@H](C)C(=O)N[C@@H](CCSC)C(=O)N[C@@H](CC(=O)O)C(=O)N[C@@H](CCCCN)C(=O)N[C@H](C(=O)N[C@@H](Cc1c[nH]cn1)C(=O)N[C@@H](CCC(N)=O)C(=O)N[C@@H](CCC(N)=O)C(=O)N[C@@H](CC(=O)O)C(=O)N[C@@H](Cc1ccccc1)C(=O)N[C@H](C(=O)N[C@@H](CC(N)=O)C(=O)N[C@@H](Cc1c[nH]c2ccccc12)C(=O)N[C@@H](CC(C)C)C(=O)N[C@@H](CC(C)C)C(=O)N[C@@H](C)C(=O)N[C@@H](CCC(N)=O)C(=O)N[C@@H](CCCCN)C(=O)NCCC(=O)NCCC(=O)N1CCC[C@H]1C(=O)N[C@@H](CCCCN)C(=O)N[C@@H](CCCCN)C(=O)N[C@H](C(=O)N[C@@H](CCCNC(=N)N)C(=O)N[C@@H](Cc1ccc(O)cc1)C(=O)N[C@@H](CO)C(N)=O)[C@@H](C)CC)C(C)C)[C@@H](C)CC` [0601GIP4648], for which, in assay [2], the “OGTT/GL (%)” value was −20, 30%. In assay [4], the “Basal Glucose Lowering” value is on record as −8%, AUC240. For the same compound, the inhibition at 0.01 µM in assay [3] (setting [6]) amounted to 85.1%.
In the case of `CC[C@H](C)[C@H](NC(=O)[C@H](CO)NC(=O)[C@H](Cc1ccc(O)cc1)NC(=O)[C@H](CC(=O)O)NC(=O)[C@H](CO)NC(=O)[C@@H](NC(=O)[C@H](Cc1ccccc1)NC(=O)[C@@H](NC(=O)CNC(=O)[C@H](CCC(=O)O)NC(=O)[C@@H](C)NC(=O)[C@@H](N)Cc1ccc(O)cc1)[C@@H](C)O)[C@@H](C)CC)C(=O)N[C@@H](C)C(=O)N[C@@H](CC(C)C)C(=O)N[C@@H](CC(=O)O)C(=O)N[C@@H](CCCCN)C(=O)N[C@H](C(=O)N[C@@H](CCCNC(=N)N)C(=O)N[C@@H](CCC(N)=O)C(=O)N[C@@H](CCC(N)=O)C(=O)N[C@@H](CCC(=O)O)C(=O)N[C@@H](Cc1ccccc1)C(=O)N[C@H](C(=O)N[C@@H](CC(N)=O)C(=O)N[C@@H](Cc1c[nH]c2ccccc12)C(=O)N[C@@H](CC(C)C)C(=O)N[C@@H](CC(C)C)C(=O)N[C@@H](C)C(=O)N[C@@H](CCC(N)=O)C(=O)N[C@@H](CCCCN)C(=O)N1CCC[C@H]1C(=O)N[C@@H](CCCCN)C(=O)N[C@@H](CCCCN)C(=O)N[C@H](C(=O)N[C@@H](CCCNC(=N)N)C(=O)N[C@@H](Cc1ccc(O)cc1)C(=O)N[C@@H](CO)C(N)=O)[C@@H](C)CC)C(C)C)[C@@H](C)CC` [0601GIP4539], in assay [2], the “OGTT/GL (%)” value is recorded as −12, 30%. Further, in assay [4], the “Basal Glucose Lowering” value was −5%, AUC240. In addition, the inhibition at 0.01 µM in assay [3] (setting [6]) was 98.7%.
